These are literature values, as cited in US20150272967A1, “EXTREMELY HIGH LOADING DOSE” (priority 2013, published 2015).

For one data set, the system named is breast cancer patients. As to conditions: modest low doses.
The next data set has as its system prostate cancer patients. The conditions noted are these: dose significantly lower than that of the invention.

Take Vitamin D: the disease free survival in the data set with breast cancer patients (25.5 without supplementation) was 32.6 months. Further, in the data set with breast cancer patients (32.8 without supplementation), the median overall survival is 43.8 months. `C=C1CC[C@H](O)C/C1=C/C=C1\CCC[C@]2(C)[C@@H]([C@H](C)CCCC(C)C)CC[C@@H]12` [Vitamin D3, cholecalciferol]: in the data set with prostate cancer patients, the “patients showing improvement (significant decrease in the number of positive cancer biopsy samples)” value was 55%.
